# Columns and labels:
# [1] = test system: A549 (lung adenocarcinoma); test: MTS cytotoxicity assay, 72 h, A549; assay type: cell-based; conditions: Homo sapiens, A549, 72 h
# Procedure: (§1) Based on the preliminary results and tests of a larger library of known triterpenoids, a small set of 2-substituted lupane and 18α-oleanane derivatives was designed and synthesized. As the first step, the cytotoxic activity of the synthesized derivatives was assessed using an MTS assay following 72 h of treatment (Table 1). Selected cell lines A549 (lung adenocarcinoma) and DU-145 (prostate cancer) are both dependent on Hh signaling. In addition, K562 (chronic myelogenous leukemia) was included as a cell line sensitive to Hh inhibitors[32] and a type of hematological malignancy with active Hh signaling.[33] MRC-5 lung fibroblasts and BJ human skin fibroblasts cell lines were used to evaluate the toxicity against nontumor cells. Compounds were also tested using the standard panel of other cancer cell lines, as described in our earlier work (Table 1).[27]
# (§2) The human prostate tumor-derived cell line DU145 was obtained from ATCC (American Type Culture Collection) and cultured in RPMI 1640 (Roswell Park Memorial Institute) medium supplemented with 10% (v/v) fetal bovine serum (FBS). Human prostate tumor-derived LNCaP cells were obtained from ATCC and cultured in RPMI 1640 medium supplemented with 10% FBS. The human nonsmall cell lung carcinoma (NSCLC)-derived cell line HOP-62 was obtained from the DSMZ (German Collection of Microorganisms and Cell Cultures) and cultured in RPMI 1640 medium supplemented with 10% FBS. The human nonsmall cell lung carcinoma-derived cell line NCI-H322 was obtained from ECACC (European Collection of Authenticated Cell Cultures) and cultured in RPMI 1640 medium supplemented with 10% FBS. The human nonsmall cell lung carcinoma-derived cell line NCI-H522 was obtained from ATCC and cultured in RPMI 1640 medium supplemented with 10% FBS. The human lung tumor-derived cell line A549 was obtained from ATCC and cultured in Dulbecco’s Modified Eagle’s Medium (DMEM) supplemented with 10% FBS. The human medulloblastoma-derived cell line DAOY was obtained from ATCC and cultured in Eagle’s Minimum Essential Medium (EMEM) supplemented with 10% FBS. The human glioblastoma-derived cell line T98G was obtained from ATCC and cultured in EMEM medium supplemented with 10% FBS, 1 mmol/L sodium pyruvate, and 1 mmol/L nonessential amino acid mixture. All the above-mentioned cell lines were cultured at 37 °C in an atmosphere of 5% CO2 with 95% humidity. The cytotoxicity MTS assays were performed using MTS (3-(4,5-dimethylthiazol-2-yl)-5-(3-carboxymethoxyphenyl)-2-(4-sulfophenyl)-2H-tetrazolium) tetrazolium salt. Briefly, cells were seeded in a 384-well transparent plate in a volume of 25 μL and a concentration of 15,000 cells/mL (DU145, LNCaP, HOP-62, A549, DAOY, T98G) or 30,000 cells/mL (NCI-H322, NCI-H522). The next day, cells were exposed to compounds in a concentration range of 50–0.0975 μmol/L (dilution factor 2) and cultured in the presence of the compounds for 72 h. After 72 h, 5 μL of MTS/phenazine methosulfate solution was pipetted into each well and incubation continued for 1–4 h. Finally, the absorbance at 490 nm was measured using an EnVision multifunctional modular reader (PerkinElmer). The IC50 value was determined using Dotmatics software.
# [2] = test system: DU-145 (prostate cancer); test: MTS cytotoxicity assay, 72 h, DU-145; assay type: cell-based, human; conditions: Homo sapiens, DU-145, 72 h
# Procedure: as §1, §2
# [3] = test system: K562 (chronic myelogenous leukemia); test: MTS cytotoxicity assay, 72 h, K562; assay type: cell-based; conditions: Homo sapiens
# Procedure: as §1, §2
# [4] = test system: K562-TAX; test: MTS cytotoxicity assay, 72 h, K562-TAX; assay type: cell-based
# Procedure: as §1, §2
# [5] = test system: HCT 116; test: MTS cytotoxicity assay, 72 h, HCT 116; assay type: cell-based; conditions: Homo sapiens, HCT-116, 72 h
# Procedure: as §1, §2
# [6] = test system: HCT116 p53–/–; test: MTS cytotoxicity assay, 72 h, HCT116 p53–/–; assay type: cell-based; conditions: Homo sapiens, HCT-116, 72 h
# Procedure: as §1, §2
# [7] = test system: U2OS; test: MTS cytotoxicity assay, 72 h, U2OS; assay type: cell-based; conditions: Homo sapiens
# Procedure: as §1, §2
# [8] = test system: CCRF-CEM; test: MTS cytotoxicity assay, 72 h, CCRF-CEM; assay type: cell-based; conditions: for IC50: Homo sapiens, CCRF-CEM, 72 h, MTS
# Procedure: as §1, §2
# [9] = test system: CEM-DNR; test: MTS cytotoxicity assay, 72 h, CEM-DNR; assay type: cell-based; conditions: Homo sapiens
# Procedure: as §1, with “1).[27] […]” for “1).[27]”
# [10] = test system: BJ human skin fibroblasts; test: MTS cytotoxicity assay, 72 h, BJ fibroblasts; assay type: cell-based; conditions: normal fibroblasts; for IC50: Homo sapiens, Skin fibroblast
# Procedure: as §1, §2
# [11] = test system: MRC-5 lung fibroblasts; test: MTS cytotoxicity assay, 72 h, MRC-5 fibroblasts; assay type: cell-based, human; conditions: normal fibroblasts; for IC50: Homo sapiens, MRC5, 72 h
# Procedure: as §1, §2
# [12] = CCRF-CEM vs average of BJ and MRC-5, full Table S1
# [13] = IC50 of CCRF-CEM line vs average of both fibroblasts (BJ and MRC-5), Table 1
Compound,IC50 ([1]; full Table S1),IC50 ([2]; full Table S1),IC50 ([3]; full Table S1),IC50 ([4]; full Table S1),IC50 ([5]; full Table S1),IC50 ([6]; full Table S1),IC50 ([7]; full Table S1),"SI (selectivity index) [8, 12]",IC50 ([8]; full Table S1),IC50 ([9]; full Table S1),IC50 ([10]; full Table S1),IC50 ([11]; full Table S1),also measured
"C=C(C)[C@@H]1CC[C@]2(C(=O)OCc3ccccc3)CC[C@]3(C)C(CCC4[C@@]5(C)C=C(c6cc7ccccc7s6)C(=O)C(C)(C)C5CC[C@]43C)C12 (some centres unmarked) [Compound 10k, Benzyl 2-(Benzo[b]thien-2-yl)-3-oxolupa-1,20(29)-dien-28-oate]",> 50 µM,> 50 µM,> 50 µM,> 50 µM,> 50 µM,> 50 µM,> 50 µM,> 1.0,> 50 µM,> 50 µM,> 50 µM,> 50 µM,–
"CC1(C)C(=O)C(c2ccc(Cl)s2)=C[C@@]2(C)C1CC[C@]1(C)C2CCC2C3[C@H]4OC[C@@]3(CCC4(C)C)CC[C@]21C (stereo partly drawn) [Compound 4e, 2-(5-Chlorothiophen-2-yl)-19β,28-epoxyolean-1-en-3-one]",> 50 µM,> 50 µM,> 50 µM,> 50 µM,> 50 µM,> 50 µM,> 50 µM,> 1.0,> 50 µM,> 50 µM,> 50 µM,> 50 µM,–
"C=C(C)[C@@H]1CC[C@]2(C(=O)O)CC[C@]3(C)C(CCC4[C@@]5(C)C=C(c6cccnc6)C(=O)C(C)(C)C5CC[C@]43C)C12 (some centres unmarked) [Compound 11g, 2-(Pyridin-3-yl)-3-oxolupa-1,20(29)-dien-28-oic acid]",34.8 µM,11.1 µM,–,–,33.5 µM,39.6 µM,44.4 µM,–,18.1 µM,20.5 µM,–,–,"IC50 ([1]; Table 1): 35 µM; IC50 ([2]; Table 1): 11 µM; IC50 ([3]; Table 1): > 50 µM; IC50 ([4]; Table 1): 20 µM; IC50 ([5]; Table 1): 34 µM; IC50 ([6]; Table 1): 40 µM; IC50 ([7]; Table 1): 44 µM; IC50 ([8]; Table 1): 18 µM; SI (selectivity index) [8, 13]: >2.8; IC50 ([9]; Table 1): 21 µM; IC50 ([10]; Table 1): > 50 µM; IC50 BJ ([10]; Table 1): below the detection limit; IC50 ([11]; Table 1): > 50 µM; IC50 MRC-5 ([11]; Table 1): below the detection limit"
"C=C(C)[C@@H]1CC[C@]2(C(=O)OCc3ccccc3)CC[C@]3(C)C(CCC4[C@@]5(C)C=C(c6ccc7[nH]ccc7c6)C(=O)C(C)(C)C5CC[C@]43C)C12 (some centres unmarked) [Compound 10m, Benzyl 2-(Indol-5-yl)-3-oxolupa-1,20(29)-dien-28-oate]",> 50 µM,> 50 µM,> 50 µM,> 50 µM,> 50 µM,> 50 µM,> 50 µM,> 1.0,> 50 µM,> 50 µM,> 50 µM,> 50 µM,–
"CC1(C)C(=O)C(c2ccc3[nH]ccc3c2)=C[C@@]2(C)C1CC[C@]1(C)C2CCC2C3[C@H]4OC[C@@]3(CCC4(C)C)CC[C@]21C (stereo partly drawn) [Compound 4m, 2-(Indol-5-yl)-19β,28-epoxyolean-1-en-3-one]",–,25.8 µM,–,–,–,–,–,–,26.1 µM,–,–,–,"IC50 ([1]; Table 1): > 50 µM; IC50 ([2]; Table 1): 26 µM; IC50 ([3]; Table 1): > 50 µM; IC50 ([4]; Table 1): > 50 µM; IC50 ([5]; Table 1): > 50 µM; IC50 ([6]; Table 1): > 50 µM; IC50 ([7]; Table 1): > 50 µM; IC50 ([8]; Table 1): 26 µM; SI (selectivity index) [8, 13]: >1.9; IC50 ([9]; Table 1): > 50 µM; IC50 ([10]; Table 1): > 50 µM; IC50 ([11]; Table 1): > 50 µM"
C=C(C)[C@@H]1CC[C@]2(C(=O)OCc3ccccc3)CC[C@]3(C)C(CCC4[C@@]5(C)C=C(c6ccc(Cl)s6)C(=O)C(C)(C)C5CC[C@]43C)C12 (some centres unmarked) [Compound 10e],> 50 µM,> 50 µM,> 50 µM,> 50 µM,> 50 µM,> 50 µM,> 50 µM,> 1.0,> 50 µM,> 50 µM,> 50 µM,> 50 µM,–
"C=C(C)[C@@H]1CC[C@]2(C(=O)OCc3ccccc3)CC[C@]3(C)C(CCC4[C@@]5(C)C=C(c6ccsc6)C(=O)C(C)(C)C5CC[C@]43C)C12 (some centres unmarked) [Compound 10d, Benzyl 2-(3-Thiophenyl)-3-oxolupa-1,20(29)-dien-28-oate]",> 50 µM,> 50 µM,> 50 µM,> 50 µM,> 50 µM,> 50 µM,> 50 µM,> 1.0,> 50 µM,> 50 µM,> 50 µM,> 50 µM,–
"C=C(C)[C@@H]1CC[C@]2(C(=O)OCc3ccccc3)CC[C@]3(C)C(CCC4[C@@]5(C)C=C(c6cccnc6)C(=O)C(C)(C)C5CC[C@]43C)C12 (some centres unmarked) [Compound 10g, Benzyl 2-(3-Pyridinyl)-3-oxolupa-1,20(29)-dien-28-oate]",> 50 µM,> 50 µM,> 50 µM,> 50 µM,> 50 µM,> 50 µM,> 50 µM,> 1.0,> 50 µM,> 50 µM,> 50 µM,> 50 µM,–
"CC1(C)C(=O)C(c2cncc3ccccc23)=C[C@@]2(C)C1CC[C@]1(C)C2CCC2C3[C@H]4OC[C@@]3(CCC4(C)C)CC[C@]21C (stereo partly drawn) [Compound 4l, 2-(Isoquinolin-4-yl)-19β,28-epoxyolean-1-en-3-one]",–,32.1 µM,–,–,–,–,–,–,–,–,–,–,IC50 ([1]; Table 1): > 50 µM; IC50 ([2]; Table 1): 32 µM; IC50 ([3]; Table 1): > 50 µM; IC50 ([4]; Table 1): > 50 µM; IC50 ([5]; Table 1): > 50 µM; IC50 ([6]; Table 1): > 50 µM; IC50 ([7]; Table 1): > 50 µM; IC50 ([8]; Table 1): > 50 µM; IC50 ([9]; Table 1): > 50 µM; IC50 ([10]; Table 1): > 50 µM; IC50 ([11]; Table 1): > 50 µM
"CC1(C)C(=O)C(c2ccoc2)=C[C@@]2(C)C1CC[C@]1(C)C2CCC2C3[C@H]4OC[C@@]3(CCC4(C)C)CC[C@]21C (stereo partly drawn) [Compound 4b, 2-(Furan-3-yl)-19β,28-epoxyolean-1-en-3-one]",> 50 µM,> 50 µM,> 50 µM,> 50 µM,> 50 µM,> 50 µM,> 50 µM,> 1.0,> 50 µM,> 50 µM,> 50 µM,> 50 µM,–
"CC1(C)C(=O)C(c2ccsc2)=C[C@@]2(C)C1CC[C@]1(C)C2CCC2C3[C@H]4OC[C@@]3(CCC4(C)C)CC[C@]21C (stereo partly drawn) [Compound 4d, 2-(Thiophene-3-yl)-19β,28-epoxyolean-1-en-3-one]",> 50 µM,> 50 µM,> 50 µM,> 50 µM,> 50 µM,> 50 µM,> 50 µM,> 1.0,> 50 µM,> 50 µM,> 50 µM,> 50 µM,–
